# “And” between values parts separate entries of the source, which are not always exact repeats. Equal values may be shown once. Read-outs that look alike come from different tables or passages of the source.
# Tests used:
# [1] = test system: single NaV channels in GH3 cells; test: Cell-attached single-channel NaV current recordings in GH3 cells; assay type: cell-based, rat; conditions: n = 7
# Procedure: The composition of the external or bath solution [4-(2-hydroxyethyl)-1-piperazineethanesulfonic acid (HEPES)-buffered normal Tyrode’s solution] was as follows: 136.5 mM NaCl, 1.8 mM CaCl2, 5.4 mM KCl, 0.53 mM MgCl2, 5.5 mM glucose, and 5.5 mM HEPES–NaOH (pH 7.4). To measure K^+ currents (data not shown), we filled a patch pipette with an internal solution comprising 140 mM KCl, 1 mM MgCl2, 3 mM adenosine 5′-triphosphate disodium salt, 0.1 mM guanosine 5′-triphosphate disodium salt, 0.1 mM ethylene glycol tetraacetic acid, and 5 mM HEPES–KOH buffer (pH 7.2). To record the whole-cell INa, the K^+ in the internal solution was substituted with Cs^+, and the pH of the solution was adjusted to 7.2 by adding cesium hydroxide. In the single-channel experiments performed to record NaV currents, the pipette was filled with a Na^+-rich solution containing 136 mM NaCl, 0.53 mM MgCl2, 5.5 mM glucose, and 5.5 mM HEPES–NaOH (pH 7.2). The bath medium was a K^+-rich solution comprising 130 mM KCl, 10 mM NaCl, 3 mM MgCl2, 6 mM glucose, and 10 mM HEPES-KOH (pH 7.4). The solutions and culture media were generally filtered on the day of use by using sterile Acrodisc Syringe Filters containing a 0.2-μm Supor Membrane (Bio-Check; New Taipei City, Taiwan).
# Single-channel NaV currents induced by depolarizing pulses ranging from −100 to −10 mV were measured and subsequently analyzed using pCLAMP 10.7. The opening events of the channels were generally evaluated through multi-Gaussian adjustments of the distribution of amplitude across channels. Functional independence between channels was determined by comparing the observed stationary probabilities with the values calculated based on the binomial law. For dwell-time analyses, only a single channel was used in the patch-clamp experiment.
# To elucidate the mechanisms underlying the effects of SAF on the magnitude of INa, we investigated the actions of SAF and SAF plus MGB on single-channel NaV currents. This experiment was performed using the cell-attached configuration of the voltage-clamp test. Test cells were placed in K^+-rich solution, and the recording pipette was filled with Na^+-rich solution. SAF (10 μM) increased channel activity and decelerated current inactivation when the cells were exposed to depolarization stimuli ascending from –100 to –10 mV (rate of 0.1 Hz; Fig. 9A). Furthermore, the addition of MGB (10 μM) in the presence of 10 μM SAF reduced the probability of channel opening. […] Moreover, with the presence of 10 μM SAF, the mean open time of NaV channels was prolonged to […] (n = 7, P < 0.05) msec from a control value of 2.3 ± 0.3 msec (n = 7). […] Consistent with these findings, the mean open time of the NaV channel in the presence of 10 μM SAF (5.9 ± 1.1 ms; n = 7; P < 0.05) was longer than that in the control period (2.3 ± 0.3 ms, n = 7); the subsequent further addition of 10 μM MGB decreased the mean open time to 3.7 ± 0.7 ms (n = 7, P < 0.05) (Fig. 9B). […] MGB added during SAF exposure reversed the SAF-induced increase in NaV channel activity.
# [2] = design: method as in PMID 15082032; conditions: cited from earlier work
# [3] = test system: voltage-gated sodium ion (NaV) channels in pituitary GH3 cells; test: Persistent INa [INa(P)] and Hys(V) induced by upright isosceles-triangular Vramp (3.2 s) in GH3 cells; assay type: cell-based, rat; conditions: n = 7; for INa(P) amplitude at −10 mV [high-threshold Hys(V) loop]: control 175 ± 14 pA; for INa(P) amplitude at −80 mV [low-threshold Hys(V) loop]: control 288 ± 25 pA
# Description: We further investigated whether SAF exposure modulated the magnitude and Hys(V) behavior of INa(P) induced by an isosceles-triangular Vramp in GH3 cells. To record whole-cell currents, the test cells were maintained at −80 mV and subjected to an upright isosceles-triangular Vramp ascending from –110 and +50 mV over 3.2 s (digital-to-analog conversion; Fig. 8A). […] For example, when test cells were subjected to an isosceles-triangular Vramp over 3.2 s (ramp speed of 0.1 mV/ms), the INa(P) amplitudes measured at −10 mV (high threshold) and −80 mV (low threshold) during the control period were 175 ± 14 pA (n = 7) and 288 ± 25 pA (n = 7), respectively. After the addition of 3 and 10 μM SAF, the INa(P) amplitude at −10 mV [high-threshold Hys(V) loop] was 194 ± 17 pA (n = 7, P < 0.05) and 219 ± 18 pA (n = 7, P < 0.05), respectively; the corresponding amplitudes at −80 mV [low-threshold Hys(V) loop] were 348 ± 29 pA (n = 7, P < 0.05) and 389 ± 31 pA (n = 7, P < 0.05), respectively. […] These findings indicate the unique Hys(V) behavior of INa(P) induced by an isosceles-triangular Vramp in GH3 cells; SAF exposure may increase the strength of Hys(V).
# Fig. 8 Stimulatory effects of SAF on the voltage-dependent hysteresis [Hys(V)] behavior of persistent INa [INa(P)] induced by upright isosceles-triangular Vramp. Vramp was supplied for 3.2 s (ramp speed of 0.1 mV/ms; digital-to-analog conversion) to induce Hys(V) behavior in GH3 cells. (A) Current traces during the control period (left) and during the exposure to 10 μM SAF (right). The blue and red traces shown in each panel represent currents induced by the upsloping (ascending) and downsloping (descending) limbs of the upright isosceles-triangular Vramp, respectively. The inset indicates the voltage protocol. The dashed arrows indicate the direction of the current trajectory over time. (B) Summary graphs illustrating the effects of SAF (3 and 10 μM), SAF plus MGB, and SAF plus Ran on the amplitude of Vramp-induced INa(P) measured at −10 mV (ascending limb; left side) and −80 mV (descending limb; right side).
# [4] = test system: voltage-gated sodium ion (NaV) channels in pituitary GH3 cells; test: Whole-cell patch-clamp of INa induced by a 30-ms depolarizing pulse (−100 to −10 mV) in GH3 cells; assay type: cell-based, rat; conditions: for amplitude of INa(L) / amplitude of INa(T): 1 min after addition; for amplitude of INa(L): control 18 ± 3 pA; for amplitude of INa(T): control 512 ± 23 pA; for EC50: GH3 cells, modified Hill equation
smiles,measurement,setting,value
"C[C@H](NCc1ccc(OCc2cccc(F)c2)cc1)C(N)=O [SAF, (S)-2-((4-((3-fluorobenzyl)oxy)benzyl)amino)propanamide]",channel activity (open-state probability) of NaV channels,"[1]; 10 μM SAF, control 0.027 ± 0.007",0.091 ± 0.006
same,mean open time of the NaV channel,"[1]; 10 μM SAF, control 2.3 ± 0.3 ms, second statement (Fig. 9B)",5.9 ± 1.1 ms
same,mean open time of NaV channels,"[1]; 10 μM SAF, control 2.3 ± 0.3 msec, first statement",6.5 ± 0.7 ms
same,amplitude of the single-channel current,"[1]; SAF 10 μM, control 2.01 ± 0.35 pA",2.03 ± 0.37 pA
same,maximal plasma concentration,"[2]; single 2.5 mg/kg dose, 2.5 mg/kg",approximately 1000 ng/mL and ~3.3 μM
same,maximal plasma concentration,"[2]; single 5.0 mg/kg dose, 5 mg/kg",~2500 ng/mL and ~8.3 μM
same,maximal plasma concentration,"[2]; single 10.0 mg/kg dose, 10 mg/kg",~5500 ng/mL and ~18.2 μM
same,INa(P) amplitude at −10 mV [high-threshold Hys(V) loop],[3]; 3 μM SAF,194 ± 17 pA
same,INa(P) amplitude at −80 mV [low-threshold Hys(V) loop],[3]; 3 μM SAF,348 ± 29 pA
same,INa(P) amplitude at −10 mV [high-threshold Hys(V) loop],[3]; 10 μM SAF,219 ± 18 pA
same,INa(P) amplitude at −80 mV [low-threshold Hys(V) loop],[3]; 10 μM SAF,389 ± 31 pA
same,amplitude of INa(L),"[4]; 10 μM SAF, n = 8",54 ± 9 pA
same,amplitude of INa(T),"[4]; 10 μM SAF, n = 8",1387 ± 131 pA
same,time constant of the fast component of INa(T) inactivation,[4]; 30 μM SAF,no evident change
same,amplitude of INa(L),"[4]; 30 μM SAF, n = 8",106 ± 17 pA
same,amplitude of INa(T),"[4]; 30 μM SAF, n = 8",1991 ± 153 pA
same,"time constant τinact(S), slow component of INa(T) inactivation","[4]; 30 μM SAF, control 5.1 ± 0.7 ms, n = 8",10.2 ± 1.1 ms
same,maximal conductance of INa,[4]; 10 mM SAF (so in the source),increased
same,sloping factor of the steady-state inactivation curve,[4]; 10 mM SAF (so in the source),no change
same,shift of steady-state inactivation curve of INa to the rightward direction,"[4]; 10 mM SAF (so in the source), two-step voltage-clamp protocol, n = 7",approximately 14 mV
same,half-maximal activation voltage of INa(T) (G–V relationship),[4]; 3 or 10 μM SAF,shifted to more negative potentials
same,EC50,"[4]; current at beginning of 30-ms pulse −100 to −10 mV, read-out: EC50 for stimulation of transient INa [INa(T)]",27.1 µM
same,EC50,"[4]; current at end of 30-ms pulse −100 to −10 mV, read-out: EC50 for stimulation of late INa [INa(L)]",4.8 µM
same,amplitude of INa(L) after the removal of SAF,"[4]; washout, n = 8",20 ± 3 pA
same,amplitude of INa(T) after the removal of SAF,"[4]; washout, n = 8",523 ± 24 pA
